According to US20110229571A1, “Pharmaceutical Compositions Comprising a Selective I1 Imidazoline Receptor Agonist and an Angiotensin II Receptor Blocker” (Abbott Products GmbH, priority 2003, published 2011):

Tests used:
[1] = tested on: 2K1C (two-kidney one-clip) hypertensive rats; experiment: Blood pressure and heart rate (tail cuff) of two-kidney one-clip renal hypertensive rats after oral treatment; type: in vivo, rat; details: for diastolic blood pressure (DBP) / mean blood pressure (MBP) / systolic blood pressure (SBP) / heart rate: Mox 1 mg/kg, Epro 3 mg/kg or both; for diastolic blood pressure (DBP) / mean blood pressure (MBP) / systolic blood pressure (SBP): mean ± SE of 12 animals; for heart rate: n 12; for maximal decrease in the diastolic blood pressure / maximal decrease in the systolic blood pressure: maximal effect 2 hours after oral administration, moxonidine 1 mg/kg or eprosartan 3 mg/kg; for effect on blood pressure (in words): oral, moxonidine 1 mg/kg, eprosartan 3 mg/kg or both
Source text: The “two-kidney one-clip” technique results in renal ischemia and in the development of hypertension. In the rat, this technique produces chronic changes, similar to those in human beings with unilateral renal artery stenosis. 2K1C rats represent a pressure overload model of hypertension, characterized by the activation of the renin-angiotensin aldosterone system (RAAS) and peripheral vasoconstriction. This model is widely used as a high renin model of hypertension for the evaluation of angiotensin converting enzyme (ACE) inhibitors and angiotensin receptor antagonists (ARBs). Animals: Male Sprague-Dawley CFY rats were used. Animals were fed commercial laboratory rat food pellet and allowed to drink tap water ad libitum throughout the experiments. Two-kidney one-clip hypertension: Under ether anesthesia an incision was made on the right side of the dorsalvertebrocostal angle. After light exterioration of the right kidney a silver clip was placed on the renal artery, close to its origin from the aorta. The left kidney was not disturbed. Measurement of blood pressure and heart rate: Blood pressure and heart rate were measured by the tail cuff method (Model 229, IITC Inc., CA, USA) from the 1st week after clipping the renal artery, once a week for 6 weeks. At the time of blood pressure measurements the animals were minimally warmed to an ambient temperature of 29° C. using a thermostated warming chamber. Experimental protocol: Animals developing stable hypertension during the 6-week-study period were used for the drug treatments. 12 animals with established hypertension were used for each treatment group as follows: • Vehicle • Moxonidine 1 mg/kg • Eprosartan 3 mg/kg • Moxonidine 1 mg/kg+Eprosartan 3 mg/kg The animals were treated orally and the blood pressure was measured 30 min, 1 h, 2 h and 4 hours there after. Different treatments were applied randomly during the day. Statistical analysis: Parameters were expressed as mean±standard error of the mean (SE) and after analysis of variance were compared by means of the modified ‘t’-statistical method of Wallenstein et al. [Wallenstein S et al. (1980) Circ. Res. 47:1-9].

Zucker rats = experiment: Oral glucose tolerance test in Zucker rats after 3 weeks of treatment; type: in vivo, rat
Experimental: The effect of a combined administration of Moxonidine as an example for a selective Imidazoline I1 receptor agonist and Eprosartan as an example for an Angiotensin II At1 receptor antagonist was analyzed by measuring their influence on plasma glucose level in “Zucker rats”. The “Zucker rat” is a model of impaired glucose tolerance and is widely used to analyze compound effects on glucose tolerance. Animals: Male Zucker rats (HsdOla fa/fa) from Harlan were used in the experiments. The animals were fed commercial lab chow and had unlimited access to tap water throughout the experiment. Experimental protocol: Animals were treated for 3 weeks with either vehicle or the active compounds. Moxonidine was applied via the drinking water. Eprosartan was administered daily into the stomach via a cannula. Ten animals were used in each of the following treatment groups: • Vehicle • Moxonidine 1 mg/kg • Moxonidine 1 mg/kg+Eprosartan 3 mg/kg • Moxonidine 1 mg/kg+Eprosartan 30 mg/kg • Moxonidine 1 mg/kg+Eprosartan 100 mg/kg At the end of the drug treatment period the animals were subjected to an oral glucose tolerance test. Animals were given a solution containing 2 g glucose via a cannula into the stomach. Blood samples were drawn before and at 30, 60, 90, and 120 minutes after the glucose load by tail vein cannulation and analyzed for plasma glucose levels. Statistical analysis: Parameters were expressed as mean±standard error of the mean (SE) and after analysis of variance were compared by means of T-Test.

[2] = 30 min after oral administration

| Compound | diastolic blood pressure (DBP) [1, 2] | mean blood pressure (MBP) [1, 2] | systolic blood pressure (SBP) [1, 2] | heart rate [1, 2] | diastolic blood pressure (DBP) ([1]; 1 h after oral administration) | mean blood pressure (MBP) ([1]; 1 h after oral administration) | systolic blood pressure (SBP) ([1]; 1 h after oral administration) | heart rate ([1]; 1 h after oral administration) | diastolic blood pressure (DBP) ([1]; 2 h after oral administration) | mean blood pressure (MBP) ([1]; 2 h after oral administration) | systolic blood pressure (SBP) ([1]; 2 h after oral administration) | heart rate ([1]; 2 h after oral administration) | diastolic blood pressure (DBP) ([1]; 4 h after oral administration) | mean blood pressure (MBP) ([1]; 4 h after oral administration) | systolic blood pressure (SBP) ([1]; 4 h after oral administration) | heart rate ([1]; 4 h after oral administration) | maximal decrease in the diastolic blood pressure [1] | maximal decrease in the systolic blood pressure [1] | effect on blood pressure (in words) [1] | other results |
| --- | --- | --- | --- | --- | --- | --- | --- | --- | --- | --- | --- | --- | --- | --- | --- | --- | --- | --- | --- | --- |
| CCCCc1ncc(/C=C(\Cc2cccs2)C(=O)O)n1Cc1ccc(C(=O)O)cc1 [Eprosartan] | 111 ± 2.8 mmHg | 117 ± 2.8 mmHg | 131 ± 2.8 mmHg | 370 ± 6.9 beats/min | 109 ± 2.3 mmHg | 116 ± 2.5 mmHg | 131 ± 3.1 mmHg | 375 ± 7.4 beats/min | 98 ± 4.8 mmHg | 105 ± 4.6 mmHg | 119 ± 4.5 mmHg | 378 ± 4.3 beats/min | 106 ± 6.6 mmHg | 112 ± 6.6 mmHg | 125 ± 6.1 mmHg | 376 ± 5.2 beats/min | 21% | 19% | significantly decreased the blood pressure | – |
| COc1nc(C)nc(Cl)c1NC1=NCCN1 [Moxonidine, 4-Chloro-5-[(4,5-dihydro-1H-imidazol-2-yl)-amino]-6-methoxy-2-methylpyrimidine] | 118 ± 3.1 mmHg | 124 ± 3.2 mmHg | 136 ± 3.6 mmHg | 383 ± 5.3 beats/min | 110 ± 3.3 mmHg | 117 ± 2.6 mmHg | 130 ± 2.1 mmHg | 376 ± 6.7 beats/min | 100 ± 4.8 mmHg | 107 ± 4.2 mmHg | 122 ± 3.5 mmHg | 368 ± 5.9 beats/min | 109 ± 3.8 mmHg | 116 ± 3.5 mmHg | 129 ± 3.1 mmHg | 384 ± 6.0 beats/min | 19% | 16% | significantly decreased the blood pressure | plasma glucose level (Zucker rats; 0 min (before glucose challenge), 1 mg/kg Mox, mean ± SE of 10 animals): 97 ± 6 mg/dL; plasma glucose AUC (area under the curve) (Zucker rats; 0-120 min after glucose challenge, 1 mg/kg Mox): 24960 ± 1268 mg·min/dL; plasma glucose level (Zucker rats; 30 min after glucose challenge, 1 mg/kg Mox): 240 ± 15 mg/dL; plasma glucose level (Zucker rats; 60 min after glucose challenge, 1 mg/kg Mox): 211 ± 15 mg/dL; plasma glucose level (Zucker rats; 90 min after glucose challenge, 1 mg/kg Mox): 221 ± 11 mg/dL; plasma glucose level (Zucker rats; 120 min after glucose challenge, 1 mg/kg Mox): 224 ± 14 mg/dL; effect on plasma glucose levels after oral glucose challenge (in words) (Zucker rats; Moxonidine 1 mg/kg alone or with Eprosartan 3, 30, 100 mg/kg): significant reduction in plasma glucose levels at 60 and 90 minutes |
